Laboratory results reported in patent US7704995B2 (Exelixis, Inc., priority 2003, dated 2010).

Assays:
CLK1 = CLK1 (Homo sapiens, UniProt P49759); assay: Kinase specificity assay (33P phosphoryl transfer, LCCA or AlphaScreen); assay type: biochemical; conditions: ATP close to KM; read-out: CLK1 inhibition, IC50
Procedure: (§1) Kinase activity and compound inhibition are investigated using one or more of the three assay formats described below. The ATP concentrations for each assay are selected to be close to the Michaelis-Menten constant (KM) for each individual kinase. Dose-response experiments are performed at 10 different inhibitor concentrations in a 384-well plate format. The data are fitted to the following four-parameter equation: Y=Min+(Max−Min)/(1+(X/IC50)^H) where Y is the observed signal, X is the inhibitor concentration, Min is the background signal in the absence of enzyme (0% enzyme activity), Max is the signal in the absence of inhibitor (100% enzyme activity), IC50 is the inhibitor concentration at 50% enzyme inhibition and H represents the empirical Hill's slope to measure the cooperativity. Typically H is close to unity. ^33P Phosphoryl Transfer Assay:
(§2) Greiner 384-well white, clear bottom, high binding plates are coated with 2 μg/well of protein or peptide substrate in a 50 μL volume overnight at ambient temperature. The coating buffer typically contains 40 μg/mL substrate, 22.5 mM Na2CO3, 27.5 mM NaHCO3, 150 mM NaCl and 3 mM NaN3. The coating solution is aspirated and the plates are washed once with 50 μL of assay buffer and padded dry. Subsequently compounds and enzymes are mixed with γ^33P-ATP (3.3 μCi/nmol) in a total volume of 20 uL in suitable assay buffers. The mixture is incubated at ambient temperature for 1.5-2.5 hrs and terminated by aspiration using a Molecular Devices EMBLA 96-head plate washer. The plates are subsequently washed 6-12 times with PBST or TBS buffer. Scintillation fluid (50 μl/well) is then added, the plates are sealed and activity assessed by liquid scintillation spectrometry using a Perkin Elmer MicroBeta TriLux.
(§3) In the LCCA assays, kinase activity is measured as the percent ATP consumed following the kinase reaction using luciferase-luciferin-coupled chemiluminescence. Greiner 384-well white, clear bottom, medium binding plates are used for LCCA. Briefly, the kinase reaction is initiated by mixing compounds, ATP and kinase in a 20 uL volume. The mixture is incubated at ambient temperature for 2-4 hrs. At the end of the kinase reaction, a 20 uL luciferase-luciferin mix is added and the chemiluminescent signal is read using a Wallac Victor^2 reader. The luciferase-luciferin mix consists of 50 mM HEPES, pH 7.8, 8.5 ug/mL oxalic acid (pH 7.8), 5 (or 50) mM DTT, 0.4% Triton X-100, 0.25 mg/mL coenzyme A, 63 uM AMP, 28 ug/mL luciferin and 40,000 units of light/mL luciferase. For the LCCA assays, total ATP consumption has been standardized to 25-45% and the IC50 values correlates well with those determined by radiometric assays.
(§4) AlphaScreen technology is a proximity assay which utilizes the increase in fluorescent signal when donor and acceptor beads are close in proximity. Biotinylated poly(Glu,Tyr) 4:1 is used as the kinase substrate, in conjunction with streptavidin-coated donor beads and anti-phosphortyrosine antibody PY100-coated acceptor beads. Upon phosphorylation, the peptide substrate can bind to both donor and acceptor beads giving rise to an increase in fluorescence. Compounds, ATP, biotinylated poly(Glu, Tyr) and kinases are mixed in a volume of 20 uL for 1 hr at ambient temperature using Greiner 384-well white clear bottom medium binding plates. Following incubation a 10 uL solution containing […] AlphaScreen beads, 75 mM Hepes, pH 7.4, 300 mM NaCl, 120 mM EDTA, 0.3% BSA and 0.03% Tween-20 is added to each well. After 2-16 hr incubation of the beads, plates are read in a Perkin Elmer AlphaQuest reader. The IC50 values correlates well with those of radiometric assays.

EphB4 = target: T1, EphB4 (Homo sapiens, UniProt P54760); assay: as above; assay type: biochemical; conditions: ATP close to KM; read-out: EphB4 inhibition, IC50
T1 sequence (P54760 16-987): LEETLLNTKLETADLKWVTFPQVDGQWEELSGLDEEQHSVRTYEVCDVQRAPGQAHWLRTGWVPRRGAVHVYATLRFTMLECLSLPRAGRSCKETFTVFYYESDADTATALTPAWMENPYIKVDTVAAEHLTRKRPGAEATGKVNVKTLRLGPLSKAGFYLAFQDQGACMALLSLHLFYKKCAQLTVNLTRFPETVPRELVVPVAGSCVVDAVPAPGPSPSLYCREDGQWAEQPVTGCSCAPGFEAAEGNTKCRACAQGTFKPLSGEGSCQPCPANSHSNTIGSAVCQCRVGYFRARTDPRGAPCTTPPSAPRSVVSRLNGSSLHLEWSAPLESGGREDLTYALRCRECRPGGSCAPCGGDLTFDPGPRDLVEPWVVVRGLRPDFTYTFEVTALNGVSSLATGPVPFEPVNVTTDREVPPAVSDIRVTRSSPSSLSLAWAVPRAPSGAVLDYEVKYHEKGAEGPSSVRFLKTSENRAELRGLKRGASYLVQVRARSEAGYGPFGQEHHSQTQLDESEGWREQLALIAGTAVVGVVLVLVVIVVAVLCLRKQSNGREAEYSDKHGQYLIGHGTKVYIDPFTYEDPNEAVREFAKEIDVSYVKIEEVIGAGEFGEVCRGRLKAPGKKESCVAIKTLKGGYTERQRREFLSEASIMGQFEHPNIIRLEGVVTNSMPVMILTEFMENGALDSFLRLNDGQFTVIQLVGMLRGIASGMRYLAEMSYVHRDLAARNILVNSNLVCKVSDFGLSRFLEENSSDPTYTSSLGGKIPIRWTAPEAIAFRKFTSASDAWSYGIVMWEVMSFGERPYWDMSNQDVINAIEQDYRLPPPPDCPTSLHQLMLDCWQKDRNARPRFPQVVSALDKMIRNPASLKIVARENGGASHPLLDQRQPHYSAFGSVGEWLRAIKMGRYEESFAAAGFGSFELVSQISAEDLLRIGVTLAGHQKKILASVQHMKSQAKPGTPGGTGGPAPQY
Procedure: as §1, §2, §3, §4

Chain of CLK1 (P49759 whole entry): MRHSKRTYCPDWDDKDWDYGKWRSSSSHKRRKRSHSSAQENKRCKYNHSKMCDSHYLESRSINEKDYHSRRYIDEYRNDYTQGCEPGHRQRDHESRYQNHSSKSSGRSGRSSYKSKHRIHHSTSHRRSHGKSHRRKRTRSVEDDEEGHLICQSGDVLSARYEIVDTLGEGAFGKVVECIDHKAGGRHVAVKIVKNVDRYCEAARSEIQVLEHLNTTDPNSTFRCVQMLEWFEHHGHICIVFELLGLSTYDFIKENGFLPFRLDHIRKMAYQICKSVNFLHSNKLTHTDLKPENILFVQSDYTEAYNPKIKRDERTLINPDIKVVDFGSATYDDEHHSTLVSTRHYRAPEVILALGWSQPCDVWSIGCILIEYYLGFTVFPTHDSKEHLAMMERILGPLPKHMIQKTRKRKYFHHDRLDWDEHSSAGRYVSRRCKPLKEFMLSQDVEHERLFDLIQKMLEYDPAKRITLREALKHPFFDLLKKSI

NC(=O)c1nc(-c2cccc3ccccc23)cnc1N [Example 2, 3-Amino-6-naphthalen-1-ylpyrazine-2-carboxamide]
IC50 (CLK1): 1 to 10 µM
IC50 (EphB4): ≥ 10 µM
